Measured values reported in the NIST ThermoML archive (doi:10.1016/j.tca.2009.06.012).
Numbers after ± are expanded uncertainties.

Legend:
[1] = Crystal
[2] = Molar enthalpy of transition or fusion; details: Crystal; DSC

Row | Normal melting temperature ([1]; visual observation) [°C] | Compound | Normal melting temperature ([1]; DTA) [°C] | Molar enthalpy of transition or fusion [2] [kcal/mol]
1 |  | N#CCCC#N [butanedinitrile] | 56.50 ± 0.5 | 0.884 ± 0.0765
2 | 167.50 ± 0.5 | Brc1ccc(-c2ccc(Br)cc2)cc1 [4,4'-dibromo-1,1'-biphenyl] |  | 6.78 ± 0.203
